Experimental data: PubChem BioAssay (NCI)
Several values for one entry are separate records, joined by “and”; a condition that tells them apart may be missing. Equal entries are not always repeated.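 Assay format: 96-well plates, 48-hour exposure. At the GI50, growth is halved. Definition used: TGI = concentration required for complete inhibition of growth.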

Key:
Assay in all cases: NCI-60 cell line screen, 48 h
M14 melanoma = system: M14 melanoma
NCI-H23 lung = system: NCI-H23 lung
HCC-2998 colon = system: HCC-2998 colon
UACC-62 melanoma = system: UACC-62 melanoma
PC-3 prostate = system: PC-3 prostate
RPMI-8226 leukemia = system: RPMI-8226 leukemia
NCI/ADR-RES ovarian = system: NCI/ADR-RES ovarian
SK-OV-3 ovarian = system: SK-OV-3 ovarian
MDA-MB-435 = system: MDA-MB-435
HS 578T breast = system: HS 578T breast

Row | SMILES | GI50 (M14 melanoma) [µM] | TGI (M14 melanoma) | GI50 (NCI-H23 lung) [µM] | TGI (NCI-H23 lung) | GI50 (HCC-2998 colon) [µM] | TGI (HCC-2998 colon) | GI50 (UACC-62 melanoma) [µM] | TGI (UACC-62 melanoma) | GI50 (PC-3 prostate) [µM] | TGI (PC-3 prostate) | GI50 (RPMI-8226 leukemia) [µM] | TGI (RPMI-8226 leukemia) | GI50 (NCI/ADR-RES ovarian) [µM] | TGI (NCI/ADR-RES ovarian) | GI50 (SK-OV-3 ovarian) [µM] | TGI (SK-OV-3 ovarian) | GI50 (MDA-MB-435) [µM] | TGI (MDA-MB-435) | GI50 (HS 578T breast) | TGI (HS 578T breast)
1 | O=C(/C=C/OC(=O)c1cccc(Cl)c1)c1ccc(Cl)cc1 | 34.6 | > 100 µM | 41.7 | > 100 µM | 29.3 | > 100 µM | > 80.8 | > 100 µM | 30.7 | > 95.9 µM | 30.5 | > 100 µM | 63.9 | > 100 µM | 35.8 | > 88.4 µM | 44.6 | > 100 µM | 23.2 µM | > 70.4 µM
2 | [CH3][Sn]([CH3])([CH3])[O][N+](=O)[O-] | 6.33 | > 10 µM | 5.02 | > 10 µM | > 10 | > 10 µM | 3.91 | > 10 µM | > 10 | > 10 µM | 4.98 | > 10 µM | 2.3 | 5.7 µM | > 10 | > 10 µM | 5.93 | > 10 µM | 1.73 µM | > 10 µM
3 | CN1CCN(Cc2ccc(NC(=O)c3cncc(C#Cc4cnc(N)c5cnccc45)c3)cc2C(F)(F)F)CC1 | 0.0727 | 0.281 µM | 0.189 | 3.81 µM | 0.234 | 7.12 µM | 0.0782 | 0.282 µM | 0.284 | 8.97 µM | 0.216 | 3.25 µM | 6.02 | 15.9 µM | 0.181 | 6.21 µM | 0.115 | 1.65 µM | 0.122 µM | 0.7 µM
4 | C=C1C(=O)O[C@H]2[C@H]1CC/C(COC(=O)NCCCCCCCCNC(=O)OC/C1=C/CC[C@@]3(C)O[C@H]3[C@H]3OC(=O)C(=C)[C@@H]3CC1)=C\CC[C@@]1(C)O[C@@H]21 | 0.272 | 0.8 µM | 0.485 | 1.74 µM | 1.2 | 2.52 µM | 0.197 | 0.488 µM | 0.385 | 1.63 µM | 0.25 | 0.745 µM | 3.91 | 18.7 µM | 3.64 | 12.3 µM | 0.241 | 0.686 µM | 1.17 µM | 8.23 µM
5 | C[CH2][Sn]([CH2]C)([O]C(=O)c1ccc(OC)c(OC)c1OC)[O]C(=O)c1ccc(OC)c(OC)c1OC | 61.9 | > 100 µM | 33 | > 67.1 µM | > 100 | > 100 µM | 42.6 | > 100 µM | > 100 | > 100 µM | 22.7 | 72.2 µM | > 100 | > 100 µM | > 100 | > 100 µM | > 100 | > 100 µM | 23.2 µM | 88.8 µM
6 | Cc1ccc(S(=O)(=O)Nc2ccc(-c3cc(-c4cccc(F)c4)c(C#N)c(N)n3)cc2)cc1 | 2.01 | 4.38 µM | 2.48 | 7.96 µM | 1.72 | 3.28 µM | 1.52 | 3.44 µM | 2.19 | 7.56 µM | 2.21 | 8.92 µM | 2.92 | 10.8 µM | 8.92 | 23.3 µM | 2.02 | 4.46 µM | 2.28 µM | 7.48 µM
7 | COCc1c(-c2ccc(NC(=O)Nc3cc(C(F)(F)F)ccc3F)c(F)c2)c2c(N)ncnn2c1CN1CCOCC1 | 1.5 | > 10 µM | 1.61 | 5.18 µM | 2.84 | 7.33 µM | 1.34 | > 10 µM | 2.88 | > 10 µM | 1.91 | 7.85 µM | 3.12 | > 10 µM | 1.61 | 6.88 µM | 1.93 | > 10 µM | 0.138 µM | 0.733 µM
8 | COC1=CC(=O)c2nc(Cl)ccc2C1=O | 1.92 | 3.52 µM | 1.59 | 3.33 µM | 11.4 | 23.6 µM | 1.77 | 3.45 µM | 3.73 | 16.5 µM | 2.59 | 7.9 µM | 1.98 | 4.24 µM | 11 | 23.3 µM | 1.79 | 3.36 µM | 2.22 µM | 6.18 µM
9 | COc1ccc2c(c1OC(C)=O)C1=CC(=O)CCC13CCNC3C2 (stereo not drawn) |  | > 100 µM |  | > 100 µM |  | > 100 µM |  | > 100 µM |  | > 100 µM |  | > 100 µM |  | > 100 µM |  | > 100 µM |  | > 100 µM |  | > 100 µM
10 | COc1cc2c(cc1C)NC(=O)/C2=C\c1c[nH]c2ccccc12 | 12.7 | 46.1 µM | 20.2 | 74.6 µM | 21.7 | 71.1 µM | 13.3 | 28.4 µM | 12.2 | 31.5 µM | 5.95 | 63 µM | 13 | 47.6 µM | 17.3 | 37.7 µM | 14.3 | 43.8 µM | 14.5 µM | 47.9 µM
11 | CCCN1CCC(c2ccc(Nc3nc(Nc4cc(F)ccc4C(N)=O)c4cc[nH]c4n3)c(OC)c2)CC1 | 1.58 | 5.48 µM | 2.22 | 6.5 µM | 2.53 | 5.5 µM | 3.58 | 7.44 µM | 2.69 | 9.53 µM | 3.68 | 12.1 µM | 3.2 | 8.37 µM | 3.03 | 6.93 µM | 0.852 | 5.86 µM | 3.84 µM | 12.3 µM
12 | Cn1c2ccccc2c2c(=O)n(CCCC(=O)OC(=NC3CCCCC3)NC3CCCCC3)c3c(-c4ccccc4)nnn3c21 | > 100 | > 100 µM | > 100 | > 100 µM | > 100 | > 100 µM | > 100 | > 100 µM | > 100 | > 100 µM | > 100 | > 100 µM | 94.9 | > 100 µM | > 100 | > 100 µM | > 100 | > 100 µM | > 100 µM | > 100 µM
13 | COC(=O)[C@]12CC[C@@H](C)[C@H](C)[C@@H]1C1=CC[C@@H]3[C@@]4(C)C(C=O)=C[C@@](C)(COC(=O)/C=C/c5ccccc5)[C@@H]4[C@H](O)C[C@@]3(C)[C@]1(C)CC2 | 3.33 | 17.3 µM | 2.99 | 15.1 µM | 3.04 | 7.75 µM | 2.49 | 8.48 µM | 2.22 | > 100 µM | 1.59 | 5.73 µM | 3.64 | 19.1 µM | 16.5 | 97.9 µM | 3.04 | 10.3 µM | 3.72 µM | 33.8 µM
14 | O=[N+]([O-])c1ccc(Sc2ccncn2)c([N+](=O)[O-])c1 | 1.64 | 3.3 µM | 2.93 | 9.73 µM | 5.17 | 16.3 µM | 6.32 | 19.3 µM | 3.98 | 15.7 µM | 2.59 | 8.16 µM | 4.46 | 14.1 µM | 8.64 | 21.7 µM | 2.5 | 8.56 µM | 3.06 µM | 24.2 µM
15 | C=CCc1c(O)c(C(=O)/C=C/c2ccccc2)c(OC)c2ccoc12 | 5.36 | 22.9 µM | 2.52 |  | 1.73 | 3.21 µM | 2.74 | 9.93 µM | 3.68 | 16.8 µM | 1.88 | 6.76 µM | 1.88 | 4.91 µM | 8.08 | 21.2 µM | 2.78 | 10.9 µM | 3.89 µM | 33.8 µM
16 | C/C(=N/N=C(N)N)c1ccc(NC(=O)Nc2ccc(/C(C)=N/N=C(N)N)cc2)cc1 | 35.7 | > 75.1 µM | 13.9 | 48 µM | 23.4 | 81.5 µM | 17.4 | 45.3 µM | 14.4 | 46.9 µM | 3.77 | 34.2 µM | 18 | > 100 µM | 36.3 | > 82.3 µM | 16 | > 83.8 µM | 26.5 µM | > 66.6 µM
17 | C/C(=N/Nc1nc(C)cc(=O)[nH]1)C(=O)O |  | > 100 µM |  | > 100 µM |  | > 100 µM |  | > 100 µM |  | > 100 µM |  | > 100 µM |  | > 100 µM |  | > 100 µM |  | > 100 µM |  | > 100 µM
18 | Cc1ccc(OCC2OC(n3cnc4c(Br)nc(Br)nc43)CC2Oc2ccc(C)cc2)cc1 (stereo not drawn) |  | 10.6 µM and 7.47 µM | 6.1 | 16.7 µM and 15.4 µM | 3.07 | 11.8 µM and 7.24 µM | 3.1 | 11.4 µM and 20.6 µM | 5.42 | 16.2 µM and 11.8 µM | 7.52 | 28.7 µM and > 71.3 µM | 20.4 | 53.5 µM and 29.5 µM | 11.2 | 21.4 µM and > 54.2 µM | 6.85 | 19.4 µM and 19.5 µM | 14.4 µM and 2.96 µM | 36 µM and 7.18 µM
19 | CN(C)CCNC(=O)NC[C@H]1CC[C@@H]2[C@H](O1)c1cc(C(F)(F)F)ccc1N[C@H]2c1ccccc1 | 0.041 | 0.684 µM | 0.495 | > 48.3 µM | 0.275 | 18.6 µM | 0.276 | 15.9 µM | 0.265 | 27 µM | 0.163 | 8.48 µM | 5.99 | > 100 µM | 0.0425 | 10 µM | 0.0278 | 0.0718 µM | 0.173 µM | 18.1 µM
20 | Fc1ccc(Nc2nc3ccccc3c3occc23)cc1 | 0.873 | 13.7 µM | 1.48 | 4.86 µM | 1.96 | 7.31 µM | 12.3 | 24.8 µM | 7.07 | 20 µM | 3.56 | 15 µM | 2.48 | 13 µM | 5.16 | 18.4 µM | 4.02 | 15.6 µM | 14.3 µM | 33.1 µM
21 | CN(C)c1ccc(N=C2C=CC(=O)c3ccccc32)cc1 | 1.79 | 3.61 µM | 2.41 | 8.04 µM | 5.05 | 16.7 µM | 1.71 | 3.24 µM | 2.66 | 19.8 µM | 2.92 | 19.7 µM | 3.95 | 72.6 µM | 17 | > 100 µM | 1.85 | 3.58 µM | 1.97 µM | 6.09 µM
22 | CSc1ccc(C(=O)/C=C/c2ccccc2Cl)cc1 | 16.6 | 36.1 µM | 15.4 | 32.5 µM | 13.1 | 28.7 µM | 15.7 | 33.5 µM | 16.5 | 32.4 µM | 7.11 | 37.7 µM | 18.9 | 40.1 µM | 32.3 | > 100 µM | 12.4 | 30.2 µM | 21.9 µM | 55.6 µM
23 | Nc1ncnc2c1ccn2[C@@H]1O[C@H]([C@H](O)c2ccc(Cl)c(F)c2)[C@@H](O)[C@H]1O | > 100 | > 100 µM | > 100 | > 100 µM | > 100 | > 100 µM | > 100 | > 100 µM | > 100 | > 100 µM | > 100 | > 100 µM | > 100 | > 100 µM | > 100 | > 100 µM | > 100 | > 100 µM | > 100 µM | > 100 µM
24 | COc1ccc(/C=C2\c3cc(OC)c(OC)c(OC)c3CC[C@@H]2O)cc1F | 0.274 | > 100 µM | 0.318 | > 100 µM | 0.809 | 80.2 µM | 0.283 | > 100 µM | 0.474 | > 100 µM | 1.82 | > 100 µM | 0.196 | 1.31 µM | 0.306 | 61.1 µM | 0.0399 | 0.235 µM | 0.299 µM | > 100 µM
